The subject of test [1] is AβTotal. In words: Amyloidβ peptide release (AβTotal) assay, AlphaLisa on supernatant of APPswe-HEK cells. The conditions noted are these: 24 hours, ratio Abtot versus Ab42. The class given is cell-based, human. On the procedure: (§1) Amyloidβ Peptide Release (Aβ42 & AβTotal) Assay to Determine IC50 Values.
(§2) Amyloidβ peptide release (Aβ42 & AβTotal) assay are performed in 384 well microtiter plates (Perkin Elmer AlphaPlate #6008350) in a final volume of 20 μl, using supernatant coming from APPswe-HEK cells exposed to test compounds. Compounds are dissolved in and diluted in 100% DMSO and incubated with APPswe-HEK cells for 24 hours a 37° C. in 5% CO2. The supernatant from APPswe-HEK cells are mixed with antibodies: for Aβ42 detection: AlphaLisa Amyloid β 1-42 Kit (Perkin Elmer AL203L) Anti-Amyloid β1-42-specific antibody acceptor beads, biotinylated anti-Amyloid “β1-42” antibody and streptavidin (SA) donor beads diluted in AlphaLisa buffer (to the instructions of the supplier). For Aβ total detection: Custom Anti-Amyloid βtotal acceptor beads (6E10 acceptor beads), biotinylated anti-Amyloid “β1-42” antibody (Perkin Elmer AL203L) and streptavidin (SA) donor beads diluted in AlphaLisa buffer (to the instructions of the supplier). After addition of supernatant to the antibody mix, the assay is incubated 4 h and 30 minutes. AmyloidP peptide release (Aβ42 & AβTotal) is measured with a Pherastar FS (BMG) multimode reader using the alphascreen module.
On the technique in general: Bead proximity is the source of the signal in Alpha formats.

Test [2] has as its system Aβ42. In words: Amyloidβ peptide release (Aβ42) assay, AlphaLisa on supernatant of APPswe-HEK cells. The class given is cell-based. The conditions noted are these: Homo sapiens, 24 hours incubation with compound, read-out: Ab42 IC50 Ranges. On the procedure:
as §1, §2

pIC50: −log10 of the molar value.

As usually defined, the pIC50 is the negative decadic logarithm of the IC50, by convention in mol/L. With `COc1cc(Nc2nnn3c2CCCC3c2ccccc2C(F)(F)F)ccc1-n1cnc(C)c1` (stereo not drawn) [Example 2], in test [1], the Abtot/Ab42 selectivity ranges entry was “a (a: selectivity ≧ 100 fold)”. Besides, the pIC50 in test [2] was 6.30 to 6.82.
In the same order, the values of `COc1cc(NC(=O)c2nnn3c2CCCC3c2ccc(Cl)cc2)ccc1-n1cnc(C)c1` (stereo not drawn) [Example 12, 7-(4-chlorophenyl)-N-(3-methoxy-4-(4-methyl-1H-imidazol-1-yl)phenyl)-4,5,6,7-tetrahydro-[1,2,3]triazolo[1,5-a]pyridine-3-carboxamide] are “b (b: 100 fold > selectivity ≧ 50 fold)” and at least 6.82.
In the same order, the values of `COc1cc(NC(=O)c2nnn3c2CCCC3c2ccc(F)cc2Cl)ccc1-n1cnc(C)c1` (stereo not drawn) [Example 17, 7-(2-chloro-4-fluorophenyl)-N-(3-methoxy-4-(4-methyl-1H-imidazol-1-yl)phenyl)-4,5,6,7-tetrahydro-[1,2,3]triazolo[1,5-a]pyridine-3-carboxamide] are “c (c: 50 fold > selectivity ≧ 10 fold)” and 6.30 to 6.82.
`COc1cc(NC(=O)c2nnn3c2CC[C@@H]3c2ccc(Cl)cc2)ccc1-n1cnc(C)c1` [Example 30, (R)-6-(4-chlorophenyl)-N-(3-methoxy-4-(4-methyl-1H-imidazol-1-yl)phenyl)-5,6-dihydro-4H-pyrrolo[1,2-c][1,2,3]triazole-3-carboxamide]: the Abtot/Ab42 selectivity ranges entry in test [1] is recorded as “b (b: 100 fold > selectivity ≧ 50 fold)”. The pIC50 in test [2] was at least 6.82.
As for `Cc1cn(-c2ccc(NC(=O)c3nnn4c3CCC4c3ccc(Cl)cc3)cc2C#N)cn1` (stereo not drawn) [Example 27, 6-(4-chlorophenyl)-N-(3-cyano-4-(4-methyl-1H-imidazol-1-yl)phenyl)-5,6-dihydro-4H-pyrrolo[1,2-c][1,2,3]triazole-3-carboxamide], the Abtot/Ab42 selectivity ranges entry in test [1] was “c (c: 50 fold > selectivity ≧ 10 fold)”. In test [2], the pIC50 is 6.30 to 6.82.
In the case of `COc1cc(NC(=O)c2nnn3c2CCC3c2ccccc2Cl)ccc1-n1cnc(C)c1` (stereo not drawn) [Example 32, 6-(2-chlorophenyl)-N-(3-methoxy-4-(4-methyl-1H-imidazol-1-yl)phenyl)-5,6-dihydro-4H-pyrrolo[1,2-c][1,2,3]triazole-3-carboxamide], the Abtot/Ab42 selectivity ranges entry in test [1] was “b (b: 100 fold > selectivity ≧ 50 fold)”. Further, the pIC50 in test [2] is at least 6.82.
As for `COc1cc(NC(=O)c2nnn3c2CC[C@H]3c2ccc(Cl)cc2)ccc1-n1cnc(C)c1` [Example 31, (S)-6-(4-chlorophenyl)-N-(3-methoxy-4-(4-methyl-1H-imidazol-1-yl)phenyl)-5,6-dihydro-4H-pyrrolo[1,2-c][1,2,3]triazole-3-carboxamide], the Abtot/Ab42 selectivity ranges entry in test [1] is reported as “c (c: 50 fold > selectivity ≧ 10 fold)”. In addition, in test [2], the pIC50 is 6.30 to 6.82.
Turning to `COc1cc(NC(=O)c2nnn3c2CCCC3c2ccc(Cl)c(Cl)c2)ccc1-n1cnc(C)c1` (stereo not drawn) [Example 19, 7-(3,4-dichlorophenyl)-N-(3-methoxy-4-(4-methyl-1H-imidazol-1-yl)phenyl)-4,5,6,7-tetrahydro-[1,2,3]triazolo[1,5-a]pyridine-3-carboxamide], the Abtot/Ab42 selectivity ranges result in test [1] is reported as “b (b: 100 fold > selectivity ≧ 50 fold)”. Moreover, the pIC50 in test [2] is at least 6.82.
In the same order, the values of `COc1cc(NC(=O)c2nnn3c2CCC[C@@H]3c2ccc(Cl)cc2)ccc1-n1cnc(C)c1` [Example 23, (R)-7-(4-chlorophenyl)-N-(3-methoxy-4-(4-methyl-1H-imidazol-1-yl)phenyl)-4,5,6,7-tetrahydro-[1,2,3]triazolo[1,5-a]pyridine-3-carboxamide] are “b (b: 100 fold > selectivity ≧ 50 fold)” and at least 6.82.
As for `COc1cc(C(=O)Nc2nnn3c2CCC3c2ccc(Cl)cc2)ccc1-n1cnc(C)c1` (stereo not drawn) [Example 44, N-(6-(4-chlorophenyl)-5,6-dihydro-4H-pyrrolo[1,2-c][1,2,3]triazol-3-yl)-3-methoxy-4-(4-methyl-1H-imidazol-1-yl)benzamide], the Abtot/Ab42 selectivity ranges entry in test [1] was “c (c: 50 fold > selectivity ≧ 10 fold)”. For the same compound, the pIC50 in test [2] was 6.30 to 6.82.
In the same order, the values of `COc1cc(C(=O)Nc2nnn3c2CCC3c2ccc(F)cc2)ccc1-n1cnc(C)c1` (stereo not drawn) [Example 46, N-(6-(4-fluorophenyl)-5,6-dihydro-4H-pyrrolo[1,2-c][1,2,3]triazol-3-yl)-3-methoxy-4-(4-methyl-1H-imidazol-1-yl)benzamide] are “c (c: 50 fold > selectivity ≧ 10 fold)” and 6.00 to 6.30.
Consider `Cc1cn(-c2ccc(Nc3nnn4c3CCCC4c3ccc(F)cc3Cl)cc2F)cn1` (stereo not drawn) [Example 3, 7-(2-chloro-4-fluorophenyl)-N-(3-fluoro-4-(4-methyl-1H-imidazol-1-yl)phenyl)-4,5,6,7-tetrahydro-[1,2,3]triazolo[1,5-a]pyridin-3-amine], for which, in test [1], the Abtot/Ab42 selectivity ranges entry was “b (b: 100 fold > selectivity ≧ 50 fold)”. In addition, the pIC50 in test [2] was 6.30 to 6.82.
On to `Cc1cn(-c2ccc(NC(=O)c3nnn4c3CCCC4c3ccc(Cl)cc3)cc2C#N)cn1` (stereo not drawn) [Example 13, 7-(4-chlorophenyl)-N-(3-cyano-4-(4-methyl-1H-imidazol-1-yl)phenyl)-4,5,6,7-tetrahydro-[1,2,3]triazolo[1,5-a]pyridine-3-carboxamide], for which, in test [1], the Abtot/Ab42 selectivity ranges result was “c (c: 50 fold > selectivity ≧ 10 fold)”. The pIC50 in test [2] is 6.30 to 6.82.
As for `COc1cc(C(=O)Nc2nnn3c2CCCC3c2ccc(F)cc2Cl)ccc1-n1cnc(C)c1` (stereo not drawn) [Example 39, N-(7-(2-chloro-4-fluorophenyl)-4,5,6,7-tetrahydro-[1,2,3]triazolo[1,5-a]pyridin-3-yl)-3-methoxy-4-(4-methyl-1H-imidazol-1-yl)benzamide], in test [1], the Abtot/Ab42 selectivity ranges entry was “b (b: 100 fold > selectivity ≧ 50 fold)”. Moreover, in test [2], the pIC50 was 6.30 to 6.82.
On to `COc1cc(NC(=O)c2nnn3c2CCCC3c2ccc(Cl)cc2)ccc1-c1ccnc(C)c1` (stereo not drawn) [Example 16, 7-(4-chlorophenyl)-N-(3-methoxy-4-(2-methylpyridin-4-yl)phenyl)-4,5,6,7-tetrahydro-[1,2,3]triazolo[1,5-a]pyridine-3-carboxamide], for which the Abtot/Ab42 selectivity ranges result in test [1] is on record as “c (c: 50 fold > selectivity ≧ 10 fold)”. For the same compound, the pIC50 in test [2] is 6.30 to 6.82.

(Values after patent US9527853B2, “Fused triazole derivatives as gamma secretase modulators” (Ares Trading S.A., priority 2012, dated 2016).)
